Like-named read-outs stand apart in the source and are kept apart here.
Columns and labels:
KRAS G12S = KRAS G12S (Homo sapiens (Human), UniProt P01116+P62937, G12S); experiment: Ras-Raf (BRAF RBD) disruption / FRET / MOA assay, KRAS G12S; type: biochemical; settings: Ras-Raf disruption/FRET/MOA assay; class symbols; read-out: KRAS G12S FRET data IC50
Procedure, shortened: (§1)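 Ras:RAF disruption was scored as a fall in TR-FRET ratio relative to DMSO. Compound ranged in 3-fold steps over 10 points from 30 μM final; incubation ran 3 h at 25° C, detection antibodies a further 1.5 h. Reported as IC50.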

KRAS G12D = KRAS G12D (Homo sapiens (Human), UniProt P01116+P62937, G12D); experiment: Ras-Raf (BRAF RBD) disruption / FRET / MOA assay, KRAS G12D; type: biochemical; settings: Ras-Raf disruption/FRET/MOA assay; class symbols; read-out: KRAS G12D FRET data IC50
Chain of KRAS G12D (P01116-2 other isoform, or with tags, fused parts or gaps G12D): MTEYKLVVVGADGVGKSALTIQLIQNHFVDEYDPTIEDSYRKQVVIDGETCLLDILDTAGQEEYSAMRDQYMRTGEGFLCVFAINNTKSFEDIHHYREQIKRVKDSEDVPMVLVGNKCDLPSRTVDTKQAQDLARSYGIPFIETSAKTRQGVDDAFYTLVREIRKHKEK
Chain of KRAS G12D (P62937 whole entry): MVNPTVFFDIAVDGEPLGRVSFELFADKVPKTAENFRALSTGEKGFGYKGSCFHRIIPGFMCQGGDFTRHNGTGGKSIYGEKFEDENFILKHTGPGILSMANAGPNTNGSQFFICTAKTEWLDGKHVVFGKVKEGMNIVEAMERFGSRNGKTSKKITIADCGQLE
Procedure, shortened: as §1

[1] = system: NCI-H358 cells (K-Ras G12C); experiment: Potency assay: pERK in NCI-H358 cells; type: cell-based, human; settings: H358 KRAS G12C, read-out: pERK EC50
Procedure, shortened: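 Compounds are dosed as ten 3-fold dilutions from a 10 mM DMSO stock, in duplicate, and left on cells for 4 h at 37 °C, 5% CO2. Phospho-ERK1/2 is then quantified by AlphaLISA SureFire Ultra or In-Cell Western, and IC50 is derived from a 4-parameter sigmoid against log concentration.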

KRAS Q61H = KRAS Q61H (Homo sapiens (Human), UniProt P01116+P62937, Q61H); experiment: Ras-Raf (BRAF RBD) disruption / FRET / MOA assay, KRAS Q61H; type: biochemical; settings: Ras-Raf disruption/FRET/MOA assay; class symbols; read-out: KRAS Q61H FRET data IC50
Chain of KRAS Q61H (P01116-2 other isoform, or with tags, fused parts or gaps Q61H): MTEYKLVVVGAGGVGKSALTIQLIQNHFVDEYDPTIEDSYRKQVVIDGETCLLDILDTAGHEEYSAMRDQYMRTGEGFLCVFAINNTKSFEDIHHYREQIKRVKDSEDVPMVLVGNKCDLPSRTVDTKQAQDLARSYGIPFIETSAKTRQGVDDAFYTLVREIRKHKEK
Chain of KRAS Q61H (P62937 whole entry, canonical isoform): as the sequence (P62937 whole entry) above
Protocol: The purpose of this biochemical assay is to measure the ability of test compounds to facilitate ternary complex formation between a nucleotide-loaded Ras isoform and cyclophilin A; the resulting ternary complex disrupts binding to a BRAF^RBD construct, inhibiting Ras signaling through a RAF effector.
[…]. Compound is present in plate wells as a 10-point 3-fold dilution series starting at a final concentration of 30 μM. After incubation at 25° C. for 3 hours, a mixture of Anti-His Eu-W1024 and anti-GST allophycocyanin is then added to assay sample wells at final concentrations of 10 nM and 50 nM, respectively, and the reaction incubated for an additional 1.5 hours. […] Compounds that facilitate disruption of a Ras:RAF complex are identified as those eliciting a decrease in the TR-FRET ratio relative to DMSO control wells.
Note—The following protocol describes a procedure for monitoring disruption of K-Ras G12C (GMP-PNP) binding to BRAF^RBD by a compound of the invention. This protocol may also be executed substituting other Ras proteins or nucleotides.
The purpose of this biochemical assay was to measure the ability of test compounds to facilitate ternary complex formation between a nucleotide-loaded K-Ras isoform and Cyclophilin A; the resulting ternary complex disrupts binding to a BRAF^RBD construct, inhibiting K-Ras signaling through a RAF effector. Data is reported as IC50 values.
[…]. Compound was present in plate wells as a 10-point 3-fold dilution series starting at a final concentration of 30 μM. After incubation at 25° C. for 3 hours, a mixture of Anti-His Eu-W1024 and anti-GST allophycocyanin was then added to assay sample wells at final concentrations of 10 nM and 50 nM, respectively, and the reaction incubated for an additional 1.5 hours. […] Compounds that facilitate disruption of a K-Ras:RAF complex were identified as those eliciting a decrease in the TR-FRET ratio relative to DMSO control wells.

KRAS G12V = KRAS G12V (Homo sapiens (Human), UniProt P01116+P62937, G12V); experiment: Ras-Raf (BRAF RBD) disruption / FRET / MOA assay, KRAS G12V; type: biochemical; settings: read-out: IC50* KRAS G12V FRET data
Chain of KRAS G12V (P01116-2 other isoform, or with tags, fused parts or gaps G12V): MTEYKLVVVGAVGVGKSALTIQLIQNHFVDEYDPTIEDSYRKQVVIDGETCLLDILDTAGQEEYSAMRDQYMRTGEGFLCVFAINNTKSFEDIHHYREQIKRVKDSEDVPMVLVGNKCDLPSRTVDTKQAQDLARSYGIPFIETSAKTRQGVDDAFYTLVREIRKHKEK
Chain of KRAS G12V (P62937 whole entry): as the sequence (P62937 whole entry) above
Procedure, shortened: as §1

K-Ras G12C = K-Ras G12C (Homo sapiens (Human), UniProt P01116+P62937, G12C); experiment: Ras-Raf (BRAF RBD) disruption / FRET / MOA assay, KRAS G12C; type: biochemical; settings: KRAS G12C; Ras-Raf disruption/FRET/MOA assay; read-out: IC50* KRAS G12C FRET data
Chain of K-Ras G12C (P01116-2 other isoform, or with tags, fused parts or gaps G12C): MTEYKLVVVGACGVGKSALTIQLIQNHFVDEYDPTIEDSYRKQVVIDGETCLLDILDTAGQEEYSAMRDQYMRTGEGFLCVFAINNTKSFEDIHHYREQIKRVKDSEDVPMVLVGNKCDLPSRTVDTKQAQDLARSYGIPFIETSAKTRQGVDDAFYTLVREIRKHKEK
Chain of K-Ras G12C (P62937 whole entry): as the sequence (P62937 whole entry) above
Procedure, shortened: as §1

K-Ras G13C = K-Ras G13C (Homo sapiens (Human), UniProt P01116+P62937, G13C); experiment: Ras-Raf (BRAF RBD) disruption / FRET / MOA assay, KRAS G13C; type: biochemical; settings: KRAS G13C; Ras-Raf disruption/FRET/MOA assay; read-out: IC50* KRAS G13C FRET data
Chain of K-Ras G13C (P01116-2 other isoform, or with tags, fused parts or gaps G13C): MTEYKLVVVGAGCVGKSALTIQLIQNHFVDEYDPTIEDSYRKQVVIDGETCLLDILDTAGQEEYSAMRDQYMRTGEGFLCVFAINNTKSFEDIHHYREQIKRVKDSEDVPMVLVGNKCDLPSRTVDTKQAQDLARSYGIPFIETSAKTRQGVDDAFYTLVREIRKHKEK
Chain of K-Ras G13C (P62937 whole entry): as the sequence (P62937 whole entry) above
Procedure, shortened: as §1

NCI-H358 (K-Ras G12C) = experiment: CellTiter-Glo cell viability assay, NCI-H358; type: cell-based, human; settings: Homo sapiens, NCI-H358, 120 h, NCI-H358, 5-day treatment; class symbols; read-out: Additional H358 Cell Viability assay data (K-Ras G12C, IC50)
Procedure, shortened: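 Four-parameter logistic fits were applied to luminescence data normalized against DMSO-treated wells. Readings were taken on day 5 following direct compound addition, after roughly 30 minutes at room temperature.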

KRAS G13D = KRAS G13D (Homo sapiens (Human), UniProt P01116+P62937, G13D); experiment: Ras-Raf (BRAF RBD) disruption / FRET / MOA assay, KRAS G13D; type: biochemical; settings: read-out: IC50* KRAS G13D FRET data
Chain of KRAS G13D (P01116-2 other isoform, or with tags, fused parts or gaps G13D): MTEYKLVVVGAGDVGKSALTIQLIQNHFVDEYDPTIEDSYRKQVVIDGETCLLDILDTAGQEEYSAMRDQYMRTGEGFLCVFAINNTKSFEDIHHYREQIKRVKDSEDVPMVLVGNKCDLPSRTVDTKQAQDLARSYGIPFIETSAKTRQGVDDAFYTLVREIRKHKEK
Chain of KRAS G13D (P62937 whole entry): as the sequence (P62937 whole entry) above
Procedure, shortened: as §1

NRAS G12C = NRAS G12C (Homo sapiens (Human), UniProt P01111+P62937, G12C); experiment: Ras-Raf (BRAF RBD) disruption / FRET / MOA assay, NRAS G12C; type: biochemical; settings: read-out: IC50* NRAS G12C FRET data
Chain of NRAS G12C (P01111 whole entry G12C): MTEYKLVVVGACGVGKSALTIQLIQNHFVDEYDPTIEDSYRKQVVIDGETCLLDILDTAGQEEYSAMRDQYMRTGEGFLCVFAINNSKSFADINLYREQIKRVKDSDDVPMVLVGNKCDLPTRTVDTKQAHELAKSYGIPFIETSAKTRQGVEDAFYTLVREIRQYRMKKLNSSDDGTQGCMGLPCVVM
Chain of NRAS G12C (P62937 whole entry): as the sequence (P62937 whole entry) above
Procedure, shortened: as §1

KRAS WT = KRAS WT (Homo sapiens (Human), UniProt P01116+P62937); experiment: Ras-Raf (BRAF RBD) disruption / FRET / MOA assay, KRAS WT; type: biochemical; settings: read-out: IC50* KRAS WT FRET data
Chain of KRAS WT (P01116-2 other isoform, or with tags, fused parts or gaps): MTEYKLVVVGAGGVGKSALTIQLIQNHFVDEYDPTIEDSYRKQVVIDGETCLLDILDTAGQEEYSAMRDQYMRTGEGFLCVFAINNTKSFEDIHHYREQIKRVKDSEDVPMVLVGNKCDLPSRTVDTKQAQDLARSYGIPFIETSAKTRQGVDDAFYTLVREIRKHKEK
Chain of KRAS WT (P62937 whole entry): as the sequence (P62937 whole entry) above
Procedure, shortened: as §1

Chain of KRAS G12S (P01116-2 other isoform, or with tags, fused parts or gaps G12S): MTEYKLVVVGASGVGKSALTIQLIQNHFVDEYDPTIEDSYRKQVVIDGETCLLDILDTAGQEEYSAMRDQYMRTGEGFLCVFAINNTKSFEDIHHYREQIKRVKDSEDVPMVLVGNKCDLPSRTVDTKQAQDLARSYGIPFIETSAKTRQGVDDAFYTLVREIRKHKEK
Chain of KRAS G12S (P62937 whole entry): as the sequence (P62937 whole entry) above

| SMILES | IC50 (KRAS G12S) [nM] | IC50 (KRAS G12D) [nM] | EC50 [1] [nM] | IC50 (KRAS Q61H) [nM] | IC50 (KRAS G12V) [nM] | IC50 (K-Ras G12C) [nM] | IC50 (K-Ras G13C) [nM] | IC50 (NCI-H358 (K-Ras G12C)) [nM] | IC50 (KRAS G13D) [nM] | IC50 (NRAS G12C) [nM] | EC50 ([1]; Homo sapiens, NCI-H358) [nM] | IC50 (KRAS WT) [nM] |
| --- | --- | --- | --- | --- | --- | --- | --- | --- | --- | --- | --- | --- |
| C=CC(=O)Nc1ncc(C(=O)N(C)[C@H](C(=O)N[C@H]2Cc3cccc(c3)-c3ccc4c(c3)c(c(-c3cccnc3[C@H](C)OC)n4CC)CC(C)(C)COC(=O)[C@@H]3CCCN(N3)C2=O)C(C)C)n1C (atropisomer, axis not shown) [Example A475] | 1000 to 10000 | > 10000 | < 5000 | 100 to 1000 |  |  |  |  |  |  |  |  |
| C=CC(=O)N1CC[C@H](C(=O)N(C)[C@H](C(=O)N[C@H]2Cc3cc(O)cc(c3)-c3ccc4c(c3)c(c(-c3c(F)cccc3CCOC)n4CC)CC(C)(C)COC(=O)[C@@H]3CCCN(N3)C2=O)C(C)C)C1 [Example A025] | 1000 to 10000 | > 10000 |  | 1000 to 10000 |  |  |  |  |  |  |  |  |
| C=CC(=O)N1CC[C@H](C(=O)N(C)[C@H](C(=O)N[C@H]2Cc3cc(O)cc(c3)-c3ccc4c(c3)c(c(-c3ccccc3N3CCOCC3)n4CC)CC(C)(C)COC(=O)[C@@H]3CCCN(N3)C2=O)C(C)C)C1 [Example A026] | > 10000 | > 10000 |  | 1000 to 10000 |  |  |  |  |  |  |  |  |
| C=CC(=O)N1CC[C@H](C(=O)N(C)[C@H](C(=O)N[C@H]2Cc3cc(O)cc(c3)-c3ccc4c(c3)c(c(-c3cccnc3)n4CC)CC(C)(C)COC(=O)[C@@H]3CCCN(N3)C2=O)C(C)C)C1 [Example A045] | 1000 to 10000 | > 10000 |  | 100 to 1000 |  |  |  |  |  |  |  |  |
| C=CC(=O)N1CC[C@H](C(=O)N(C)[C@H](C(=O)N[C@H]2Cc3cc(O)cc(c3)-c3ccc4c(c3)c(c(-c3ccc5c(c3)OCCN5C)n4CC)CC(C)(C)COC(=O)[C@@H]3CCCN(N3)C2=O)C(C)C)C1 [Example A050] | 1000 to 10000 | > 10000 |  | 1000 to 10000 |  |  |  |  |  |  |  |  |
| C=CC(=O)N1CC[C@H](C(=O)N(C)[C@H](C(=O)N[C@H]2Cc3cc(O)cc(c3)-c3cc(F)c4c(c3)c(c(-c3ccccc3CCOC)n4CC)CC(C)(C)COC(=O)[C@@H]3CCCN(N3)C2=O)C(C)C)C1 [Example A053] |  | > 10000 |  | 1000 to 10000 |  |  |  |  |  |  |  |  |
| C=CC(=O)N1CC[C@H](C(=O)N(C)[C@H](C(=O)N[C@H]2Cc3cc(O)cc(c3)-c3ccc4c(c3)c(c(-c3cccnc3N3CC(OC)C3)n4CC)CC(C)(C)COC(=O)[C@@H]3CCCN(N3)C2=O)C(C)C)C1 [Example A060] | 1000 to 10000 | > 10000 |  | 1000 to 10000 |  |  |  |  |  |  |  |  |
| C=CC(=O)N1CC[C@H](C(=O)N(C)[C@H](C(=O)N[C@H]2Cc3cc(O)cc(c3)-c3ccc4c(c3)c(c(-c3cncnc3)n4CC)CC(C)(C)COC(=O)[C@@H]3CCCN(N3)C2=O)C(C)C)C1 [Example A061] | 1000 to 10000 | > 10000 |  | 1000 to 10000 |  |  |  |  |  |  |  |  |
| C=CC(=O)N1CC[C@H](C(=O)N(C)[C@H](C(=O)N[C@H]2Cc3cc(O)cc(c3)-c3ccc4c(c3)c(c(C3=C(COC)CCCC3)n4CC)CC(C)(C)COC(=O)[C@@H]3CCCN(N3)C2=O)C(C)C)C1 [Example A064] | 100 to 1000 | > 10000 |  | 100 to 1000 |  |  |  |  |  |  |  |  |
| C=CC(=O)N1CC[C@H](C(=O)N(C)[C@H](C(=O)N[C@H]2Cc3cc(O)cc(c3)-c3ccc4c(c3)c(c(-c3cncc(COC)c3)n4CC)CC(C)(C)COC(=O)[C@@H]3CCCN(N3)C2=O)C(C)C)C1 [Example A083] | 100 to 1000 | > 10000 |  | 100 to 1000 |  |  |  |  |  |  |  |  |
| CCn1c(-c2cccnc2[C@H](C)OC)c2c3cc(ccc31)-c1cc(O)cc(c1)C[C@H](NC(=O)[C@H](C(C)C)N(C)C(=O)[C@H]1CCN(C(=O)/C=C/C(F)(F)F)C1)C(=O)N1CCC[C@H](N1)C(=O)OCC(C)(C)C2 [Example A527] | 10 to 100 | 100 to 1000 |  |  | 10 to 100 | < 10 | 10 to 100 | < 10 | 10 to 100 | < 10 | < 5000 | 10 to 100 |
| CCn1c(-c2cccnc2[C@H](C)OC)c2c3cc(ccc31)-c1cccc(c1)C[C@H](NC(=O)[C@H](C(C)C)N(C)C(=O)[C@H]1CCN(C(=O)C#C[C@@H]3COCCN3C)C1)C(=O)N1CCC[C@H](N1)C(=O)OCC(C)(C)C2 [Example A528] | 1000 to 10000 | > 10000 |  |  | 1000 to 10000 | 10 to 100 | 1000 to 10000 | < 10 | > 10000 | 10 to 100 | < 5000 | 1000 to 10000 |
| CCn1c(-c2cccnc2[C@H](C)OC)c2c3cc(ccc31)-c1cc(O)cc(c1)C[C@H](NC(=O)[C@H](C(C)C)N(C)C(=O)c1ncc(NC(=O)/C=C/CN(C)C)n1C)C(=O)N1CCC[C@H](N1)C(=O)OCC(C)(C)C2 [Example A529] | 100 to 1000 | 100 to 1000 |  |  | 100 to 1000 | < 10 | < 10 | 10 to 100 | 100 to 1000 | < 10 | < 5000 | 100 to 1000 |
| CCn1c(-c2cccnc2[C@H](C)OC)c2c3cc(ccc31)-c1cccc(c1)C[C@H](NC(=O)[C@H](C(C)C)N(C)C(=O)[C@H]1CCN(C(=O)C#CC3(N(C)C)CCOC3)C1)C(=O)N1CCC[C@H](N1)C(=O)OCC(C)(C)C2 (stereo partly shown) [Example A533] | 1000 to 10000 | > 10000 |  |  | 1000 to 10000 | 10 to 100 | 1000 to 10000 | < 10 | > 10000 | 10 to 100 | < 5000 | 1000 to 10000 |

From patent US11566007B2, “Ras inhibitors” (Revolution Medicines, Inc., priority 2019, dated 2023)
